In one series the test system is C. albicans SC5314. The series is described as follows: Systemic candidiasis model, survival and renal fungal burden. The class given is in vivo, BALB/c mice. As to the method:
The efficacy of RTD-1 in vivo was evaluated in an established model of systemic candidiasis using C. albicans SC5314. Both immunocompetent and immunosuppressed mouse models are employed in preclinical studies of systemic candidiasis. Since many of our preliminary studies employed the […] model, we conducted efficacy studies with RTD-1 and reference antifungal drugs in immunocompetent BALB/c mice. Mice were challenged i.v. with 3 × 10^5 blastospores at T = 0, which rapidly produces disseminated candidiasis and colonizes major organs in a manner resembling systemic candidiasis in humans. […] We analyzed the effect of a single 5 mg/kg dose of RTD-1 administered i.v., s.c., or i.p. immediately after i.v. fungal challenge, with i.p. saline as vehicle control. Fluco and Caspo, administered i.p. at 5 mg/kg, were used as drug comparators. […] In subsequent studies, antifungal agents were administered i.p. to circumvent potentially confounding effects resulting from treatment by the same route as infection, which was i.v. in all experiments.
(§1) BALB/c female mice (7–8 weeks old) and CD-1 female mice (4–5 weeks old) were obtained from Charles River Laboratories and allocated randomly in groups of five mice per cage. Mice were maintained on a 12 h light/dark cycle in thermostatically controlled rooms for the duration of the experiment. C. albicans inocula were prepared fresh each day from saturated cultures grown overnight in YPD medium, washed in sterile PBS, and fungi were counted with hemocytometer. Stock suspensions were prepared in sterile PBS. BALB/c mice were challenged with 2 × 10^6 CFU/ml wild-type C. albicans reference strain SC5314, while CD-1 mice were challenged with 1.8 × 10^7 CFU/ml (0.15–0.2 ml) C. albicans clinical isolate 53264 by i.v. injection into the lateral caudal tail vein using a 28 G 1/2 inch needle. Animals were treated by i.v., s.c., or i.p. routes immediately post-infection (p.i.) or 24 h p.i. with sterile saline (control), RTD-1, fluconazole, or caspofungin administered at the concentrations indicated in a 0.200 ml. Mice were weighted and monitored daily for general clinical condition. Mice were euthanized as approved by the USC IACUC and in compliance with the National Institutes of Health Guide for the Care and Use of Laboratory Animals. All experiments were repeated at least three times.
(§2) To assess systemic fungal clearance, renal fungal burden was determined. Mice were euthanized at times indicated, and both kidneys were weighed, homogenized in 5 ml of sterile PBS, and serial dilutions of homogenate were plated on YPD agar plates and incubated at 30 °C for 2 days. CFU per gram of kidney was calculated.

In series [1] the test system is C. albicans SC5314 biofilms. Nature of the series: Biofilm XTT metabolic assay. It is filed as cell-based. The method, then:
The antifungal activities of RTD-1, caspofungin and fluconazole were evaluated against biofilms of C. albicans SC5314 and 53264 essentially as described by Pierce et al.[67]. Briefly, biofilms established for 0 h (preadhesion), 2 h (adherent), or 24 h (mature) were developed by adding 1 × 10^5 yeast cells in 50 or 100 µl of RPMI-1640 to wells of flat-bottom 96-well microtiter plates (Costar, Corning, NY). Fifty or 100 µl aliquots of serial 2-fold dilutions of peptide or antifungal drugs were added to wells in triplicate and incubated for 24 h or 48 h prior to analysis of biofilm metabolic activities. Concentrations of reagents used were as follows: RTD-1 - 0.09 – 100 µg/ml (0.05–48 µM), Fluco – 1–250 µg/ml (3.3–816.3 µM); Caspo- 0.003–8 µg/ml ([…]–7.3 µM). Analysis of the effect of each agent on Candida biofilms was performed using an XTT colorimetric assay. One hundred µl of 1 µM XTT/menadione added to each biofilm well, plates were incubated in the dark for 3 h at 37 °C, and 80 µl of supernatant was transferred to a new 96-well flat-bottom microtiter plate (Greiner Bio-one, Monroe, NC). Absorbance was measured at 490 nm on a SpectraMax® i3x (Molecular Devices). Readings were plotted as average of triplicates after subtracting the corresponding values for negative controls (XTT/menadione only).
In general terms: Tetrazolium dyes change colour on reduction, which living cells bring about.

For another series, the system named is C. albicans 43001. Nature of the series: Kinetics of candidacidal activity, liquid suspension assay. To be noted: PIPES-glucose buffer. The class given is cell-based. As to the method:
(§3) Kinetics of RTD-1 candidacidal activity was determined at peptide concentrations ranging from 0 to 10 µg/ml using a liquid suspension assay described previously. Overnight cultures of C. albicans 53264 or 43001 were grown to mid-log phase in 5% yeast peptone dextrose broth (YPD) (Difco) at 30 °C. Approximately 2 × 10^6 CFU/ml were incubated with 0, 0.3, 1, 3 and 10 µg/ml RTD-1 or 10 µg/ml caspofungin, suspended in 10 mM PIPES, pH 7.4, plus 5 mM glucose (PG), in 96-well plates with shaking at 60 RPM at 37 °C. At timed intervals, samples were diluted 1:1000 fold into PG buffer and aliquots plated onto YPD agar plates (TekNova), and surviving organisms quantified by colony counting after incubation for 24 h at 30 °C.

The subject of series [2] is C. albicans 53264. The description is as above. The class given is cell-based. To be noted: PIPES-glucose buffer. As to the method: as §3
The subject of series [3] is C. albicans 53264. Nature of the series: Systemic MDR candidiasis model, survival and renal fungal burden. It is filed as in vivo, CD-1 mice. To be noted: for survival (log-rank): 1.8 × 10^7 blastospores i.v., 40 days. As to the method: (as in Fig. 3d). CD-1, rather than BALB/c mice were used in the C. albicans 53264 challenge studies as this mouse strain was employed by Wiederhold et al. in the assessment of caspofungin efficacy against this pathogen. […] Fungal burdens were determined in kidneys of long term survivors in the RTD-1, Caspo, and Fluco-treated cohorts (euthanized at day 40) and from moribund mice from the survival study in Fig. 7a.
as §1, §2

Series [4] in a line: RTD-1 tolerability/toxicity in naive mice. The class given is in vivo, BALB/c mice. As to the method:
RTD-1 tolerability/toxicity was evaluated by i.p. dosing of naÏve BALB/c mice with RTD-1 at 5 mg/kg RTD-1 daily for 7 days, 20 mg/kg every other day for 10 days, and once at 50 mg/kg.

Series [5] relates to host and fungal proteases. To be noted: cited from earlier work.
The mark [6] stands for this setting: 5 mg/kg i.p. once a day for 7 days, first dose 24 h after infection, 30 d.
[7] abbreviates: 5 mg/kg i.p. once per day for 7 days beginning 24 h p.i.
The mark [8] stands for this setting: 3 µg/ml, by 30 min of incubation.

Entries after “also recorded” stand apart in the source; their conditions may differ. Bridge positions count the residues as written; N and C are the ends. Peptide text beside a SMILES is read from it.

Regarding `CC[C@H](C)C[C@H](C)CCCCCCCCC(=O)N[C@H]1C[C@@H](O)[C@@H](NCCN)NC(=O)[C@@H]2[C@@H](O)CCN2C(=O)[C@H]([C@H](O)CCN)NC(=O)[C@H]([C@H](O)[C@@H](O)c2ccc(O)cc2)NC(=O)[C@@H]2C[C@@H](O)CN2C(=O)[C@H]([C@@H](C)O)NC1=O` [Caspo, caspofungin], the survival entry in the series on C. albicans SC5314 (setting [6]) was “markedly enhanced survival”; with C. albicans SC5314 (single 5 mg/kg dose at T = 0 (RTD-1 i.v., s.c. or i.p.; Fluco, Caspo i.p.), 3 × 10^5 blastospores i.v., 30 days, vs saline, 5 mg/kg) it was “effective in enhancing survival; also recorded: superior to RTD-1 and Fluco treatment”. Besides, in series [1] (2- and 24 h biofilms), the “biofilm inhibition (XTT)” value is “reduced at concentrations >2 µg/ml”. For the same compound, the “fungicidal activity, time-kill” value with C. albicans 43001 (10 µg/ml, 0–60 min) is on record as “very little activity”; in the series with C. albicans 53264 [2] (10 µg/ml, 0–60 min), “very little activity”. The “survival (log-rank)” value with C. albicans 53264 [3] (setting [7]) is “significantly (P < 0.0001) improved survival”.
Consider `CC[C@H](C)[C@@H]1NC(=O)[C@@H]2CSSC[C@H](NC(=O)[C@H](CCCNC(=N)N)NC(=O)[C@@H]3CSSC[C@H](NC1=O)C(=O)N[C@@H]([C@@H](C)O)C(=O)N[C@@H](CCCNC(=N)N)C(=O)NCC(=O)N[C@@H](Cc1ccccc1)C(=O)N3)C(=O)N[C@@H](CC(C)C)C(=O)N[C@H]1CSSC[C@H](NC(=O)[C@H](C(C)C)NC(=O)CNC(=O)[C@H](CCCNC(=N)N)NC(=O)[C@H](CCCNC(=N)N)NC1=O)C(=O)N[C@@H](CCCNC(=N)N)C(=O)N2` [RTD-1, Rhesus theta (θ) defensin-1] (cyclo(GFCRCLCRRGVCRCICTR); disulfide 3-16, 5-14, 7-12 (inferred); ring closure inferred), for which the tolerability entry in series [4] (i.p. 5 mg/kg daily for 7 days, 20 mg/kg every other day for 10 days, once 50 mg/kg, observation at least 14 days) is listed as “tolerated RTD-1 dosing at all levels”. Also, the toxicity entry in series [4] (summary statement (Results)) is “non-toxic”. Besides, the survival result in the series on C. albicans SC5314 (setting [6]) is “markedly enhanced survival; also recorded: more effective in enhancing survival than Fluco, and was nearly equivalent to Caspo”; in the series on C. albicans SC5314 (single 5 mg/kg dose at T = 0 (RTD-1 i.v., s.c. or i.p.; Fluco, Caspo i.p.), 3 × 10^5 blastospores i.v., 30 days, vs saline), “significantly enhanced survival regardless of the routes of administration”; with C. albicans SC5314 (single i.p. 5 mg/kg, administration delayed 24 h or 72 h (data not shown)), “no survival enhancement”; in the series on C. albicans SC5314 (single i.p. 5 mg/kg, treatment delayed 1, 3 or 6 h after infection), “enhanced survival compared to saline control”; in the series with C. albicans SC5314 (single i.p. dose 20 mg/kg at T = 0, vs saline) it was “significantly accelerates death”; with C. albicans SC5314 (single i.p. dose 10 and 20 mg/kg at T = 0, compared with 5 mg/kg Fluco), “less effective than Fluco”. The survival result in the series with C. albicans SC5314 (single i.p. dose at T = 0, all doses of 0.1–20 mg/kg except 0.1 and 20 mg/kg, vs saline) is on record as “enhanced survival significantly”. Moreover, in the series on C. albicans SC5314 (long term survivors, day 30 p.i.), the “kidneys with no culturable organisms detected” value turned out to be 50%. The “kidney fungal burden (CFU/g)” value in the series on C. albicans SC5314 (long term survivors, day 30 p.i., treated i.p. at T = 0, vs moribund saline treated mice) is listed as “markedly reduced kidney fungal burden; also recorded: substantially more effective than treatment with Fluco”; in the series on C. albicans SC5314 (single 5 mg/kg i.p. at T = 0, by day 3 p.i., vs saline), “markedly reduced fungal burden”; with C. albicans 53264 [3] (long term survivors, day 40, vs moribund saline controls), “significantly (P = 4.1 × 10^−5) reduced fungal burden”. The “biofilm inhibition (XTT)” value is “much more effective than Fluco” in series [1] (2- and 24 h biofilms); “inhibited biofilms of drug sensitive SC5314 at each time point, but less effectively than Caspo” in series [1] (pre-adhesion, 2 h adherent and 24 h mature biofilms). In series [5], the “stability to fungal proteases” value was “highly stable”. Besides, in series [5], the “stability to host proteases” value was “highly stable”. Further, the “fungicidal activity, time-kill” value with C. albicans 43001 (setting [8]) and with C. albicans 53264 [2] (setting [8]) was “sterilized the incubation mixture” in each case. In addition, the “survival endpoint analysis (χ2) at day 40 p.i.” value in the series with C. albicans 53264 [3] (setting [7]) is “superior to Fluco (P = 0.01) and Caspo (P = 0.001)”. Further, the “survival (log-rank)” value in the series on C. albicans 53264 [3] (setting [7]) was “significantly (P < 0.0001) improved survival; also recorded: superior to Caspo (P = 0.029) but not Fluco”.

The values above are taken from publication PMC6858451, “Rhesus Theta Defensin 1 Promotes Long Term Survival in Systemic Candidiasis by Host Directed Mechanisms” (Scientific Reports, 2019).
